The conditions of series [1]: rat, in vivo, po; for AUC(0-inf) / Cmax / Tmax: male, Sprague-Dawley.
Series [2] in a line: in vitro. The note with it: African green monkey.
Series [3] deals with Rhinovirus 2 HGP (HeLa Ohio-1 cells). As to the kind of experiment: microbe, parasite or virus in culture. The note with it: Enterovirus, HeLa Ohio1.
Series [4] deals with Influenza A H1N1 CA/04/2009 (Pandemic HIN1).
Series [5] relates to A/Vic/3/75 (H3N2). As to the kind of experiment: microbe, parasite or virus in culture. The series is classed as cell-based. The note with it: Influenza A virus.
The test system of series [6] is SARS-CoV Urbani (Vero 76 cells). The note with it: African green monkey.
Series [7] deals with Influenza A H1N1 CA/04/2009 (Pandemic HIN1). The source holds these as a separate data set.
In series [8] the test system is H3N2 virus (A/Victoria/3/75). The arrangement: species or system BALB/c mice. The note with it: mouse, in vivo.
In series [9] the test system is Punta Toro A2 (Vero 76 cells). The experiment in a line: microbe, parasite or virus in culture.
For series [10], the system named is Respiratory Syncytial A2 (MA-104 cells). The experiment in a line: microbe, parasite or virus in culture. To be noted: human respiratory syncytial virus, MA104.
Series [11] concerns Adenovirus type 165089/Chicago (A-549 cells). The note with it: human.
Series [12] shares this test system. The note with it: human. The source holds these as a separate data set.
The test system of series [13] is Yellow Fever 17D (Vero 76 cells). The experiment in a line: microbe, parasite or virus in culture.
Series [14] concerns Punta Toro A2 (Vero 76 cells). As to the kind of experiment: microbe, parasite or virus in culture. This is another data set of the same source.
Series [15] deals with West Nile (Vero Cells). To be noted: African green monkey.
The subject of series [16] is Yellow Fever 17D (Vero 76 cells). The experiment in a line: microbe, parasite or virus in culture. This is another data set of the same source.
Series [17] concerns Yellow fever virus (Jimenez strain). The class given is in vivo, Syrian golden hamsters. The note with it: 100 mg/kg.
For series [18], the system named is H3N2 virus (A/Victoria/3/75). The arrangement: species or system BALB/c mice. To be noted: mouse, in vivo. This is another data set of the same source.
Series [19] relates to Rhinovirus 2 HGP (HeLa Ohio-1 cells). The note with it: human.
Series [20] deals with Influenza B Florida.
A short description of series [21]: in vitro. To be noted: African green monkey. This is another data set of the same source.
The test system of series [22] is Respiratory Syncytial A2 (MA-104 cells). As to the kind of experiment: microbe, parasite or virus in culture. The note with it: human respiratory syncytial virus, MA104. The source holds these as a separate data set.
In series [23] the test system is Rhinovirus 2 HGP (HeLa Ohio-1 cells). As to the kind of experiment: microbe, parasite or virus in culture. The note with it: Enterovirus, HeLa Ohio1. The source holds these as a separate data set.

The structures appear in SMILES notation. Where “and” joins values, the source holds several entries; their conditions need not be identical. Equal entries are not always repeated. Structures can show the parent of a compound that is named as a salt. Where two headings read alike, the source gives them in different places. Marks after values point to notes of the source that are not given here.

For the compound `Cl.Cl.Nc1ncnc2c([C@@H]3N[C@H](CO)[C@@H](O)[C@H]3O)c[nH]c12` [compound 12i, (2S,3S,4R,5R)-2-(4-amino-5H-pyrrolo[3,2-d]pyrimidin-7-yl)-5-(hydroxymethyl)pyrrolidine-3,4-diol dihydrochloride], in series [1] (10 mg/kg), the “AUC(0-inf)” value is 219 ng·h. Further, in series [1] (10 mg/kg), the Cmax is recorded as 123 ng/mL. In series [1] (10 mg/kg), the Tmax is 30 min. Besides, the IC50 in series [2] and in series [21] was over 100 µg/mL throughout. In addition, the EC50 in [3] is 56 µg/mL; in [5], 4 µg/mL; in series [9], over 250 µg/mL; in series [10], over 100 µg/mL; in [13] it was 8.3 µg/mL; in series [14], 310 µg/mL. The EC50 in series [16] is 8.3 µg/mL; in [20], 1.8 µg/mL; in series [22] it was over 100 µg/mL; in series [23] it was 57 µg/mL. The “IC50 (50% cytotoxic dose)” value was 0.21 µg/mL in series [4]; over 0.1 µg/mL in series [6]; 0.21 µg/mL in [7]; over 0.1 µg/mL in series [11]; over 0.1 µg/mL in [12]; over 0.1 µg/mL in [15]. Further, in series [19], the “IC50 (50% cytotoxic dose)” value is over 0.1 µg/mL. The “Mean day to death (Mean ± SEM)” value in series [8] and in series [18] (po) was over 16 days throughout. In addition, the Survival rate in series [17] (21 days) was 100%; in [17] (hamster, in vivo, ip, dihydrochloride), 100% and 80%. The weight entry in [17] (hamster, in vivo, ip) was “weight gain over placebo and ribavirin”. For the same compound, the Survival/Total in [18] and in series [18] (po) was 10/10* throughout. In addition, the “Mean weight change (grams ± SEM) Day 9” value in [18] (po) is recorded as 0.01 + 0.27** grams.

On to `CC(C)[C@H](N)C(=O)OC[C@H]1N[C@@H](c2c[nH]c3c(N)ncnc23)[C@H](O)[C@@H]1O` [compound 30f, (S)-((2R,3R,4S,5S)-5-(4-amino-5H-pyrrolo[3,2-d]pyrimidin-7-yl)-3,4-dihydroxypyrrolidin-2-yl)methyl 2-amino-3-methylbutanoate Hydrochloride], for which, in series [1] (10 mg/kg), the “AUC(0-inf)” value is recorded as 1076 ng·h, the Cmax is recorded as 527 ng/mL, the Tmax is 30 min and the “bioavailability relative to compound 12i” value is on record as “approximately four-fold”. Moreover, the “hydrolysis by plasma esterases to compound 12i” value in series [1] is “rapidly hydrolyze”.

The values are drawn from patent US9580428B2, “Compositions and methods for inhibiting viral polymerase” (priority 2012, dated 2017).
